According to publication PMC12800093 (Nature Communications, 2025):
Where a SMILES comes first, the peptide text is derived from it. [ ]: non-standard residue; d: D form.

Test system: Mycobacterium tuberculosis complex (MTBC) clinical isolates
Details: 96 h

CC(C)[C@@H](NC(=O)[C@H](N)Cc1c[nH]c2ccccc12)C(=O)N[C@@H](C(=O)N[C@H](Cc1c[nH]c2ccccc12)C(=O)N[C@H](Cc1c[nH]cn1)C(=O)N[C@H](CCCNC(=N)N)C(=O)N[C@H](CCCNC(=N)N)C(=O)N[C@H](Cc1c[nH]c2ccccc12)C(=O)N[C@H](Cc1c[nH]c2ccccc12)C(=O)N[C@H](Cc1c[nH]cn1)C(=O)N[C@H](Cc1c[nH]c2ccccc12)C(=O)N[C@H](CCCNC(=N)N)C(=O)N[C@H](CCCCN)C(N)=O)C(C)C [MAD1-RI] (H-[dW][dV][dV][dW][dH][dR][dR][dW][dW][dH][dW][dR][dK]-NH2)
MICs against a panel of drug-resistant clinical Mtb isolates: ≤ 40 µM
